Assay results from patent US20130171073A1 (CEDARS-SINAI MEDICAL CENTER, priority 2010, published 2013).
Entries after “also recorded” stand apart in the source; their conditions may differ.

Legend:
[1] = test system: pituitary POMC cells overexpressing zPttg; test: In vivo treatment of Tg:Pomc-Pttg; POMC-eGFP zebrafish embryos with CDK inhibitors, pituitary POMC-eGFP fluorescence; conditions: for reduction in pituitary POMC-eGFP expression compared with controls: 50 μM in embryo medium, control 0.2% DMSO
Procedure: (§1) Results represent one of three similar experiments.
(§2) WT and transgenic embryos were examined at various developmental stages under a fluorescein isothiocyanate filter on an Axioplan-2 microscope (Carl Zeiss). Live embryo images were generated with an Axiocam video system (Carl Zeiss). Fluorescence intensity of POMC-GFP-positive cells was measured by the area of interest function in Openlab software (Improvision). For confocal imaging, images were captured in a Z-series by using a TCS SP confocal microscope (Leica Microsystems). GFP was detected at a spectral range from 507 to 550 nm, RFP from 585 to 690 nm, and DAPI from 460 to 480 nm. Images were prepared using Leica LCS lite, Volocity 5.2 (Improvision), and Photoshop 7.0 (Adobe). Pituitary GFP and RFP intensity and area were measured using Volocity 5.2 (Improvision). Lipid Staining Liver cryosections were stained with oil redO (Sigma-Aldrich) per manufacturer's protocol. Lipid staining was scored based upon area distribution (>50% positive cells, 2 points; <50% but >10%, 1 point; <10%, 0 points) and intensity [strong, large (size of cell) lipid droplets, 2 points; weak, small (smaller than cell size) lipid droplets, 1 point; negative, 0 points].

[2] = test system: pituitary lactotrophs (Prl-RFP); test: In vivo treatment of Tg:Pomc-Pttg; Prl-RFP zebrafish embryos, pituitary Prl-RFP fluorescence; conditions: 50 μM, 18 to 48 hpf
Procedure: as §1, §2

[3] = test system: mouse pituitary ACTH-secreting tumor AtT20 cell line; test: Wst-1 cell proliferation assay in AtT20 cells; conditions: 1−2×10^−5 M
AtT20 cells [4] = test: ACTH radioimmunoassay of AtT20 culture medium; conditions: AtT20 cells vs vehicle
AtT20 cells [5] = test: Senescence (β-galactosidase expression) in AtT20 cells; conditions: 10 μM, 48 hours
[6] = test system: AtT20 corticotroph tumor xenografts; test: Plasma ACTH and serum corticosterone in AtT20 xenograft-bearing nude mice; conditions: 150 mg/kg oral gavage twice daily, three weeks
Text: (§3) Athymic nude mice were subcutaneously inoculated with corticotroph tumor AtT20 cells (1×10^5 cells). […] (D) Blood was collected from each animal for measurement of plasma ACTH and serum corticosterone levels.
Mouse corticotroph tumor AtT20 cells (−1×10^5) were inoculated s.c. into 6-wk-old female nu/nu mice. […] After 3 wk of treatment, mice were killed by CO2 inhalation, and tumors were dissected, weighted, and snapfrozen for further analysis.

zebrafish embryos = test: Gross morphology / development of zebrafish embryos exposed to CDK inhibitors; conditions: 50 μM, starting at 18 hpf, observed by 40 hpf
Procedure: (C) In vivo treatment of Tg:Pomc-Pttg; Pomc-eGFP embryos with different small molecule CDK inhibitors (50 μM) or 0.2% DMSO as control from 18-40 hpf. 100-150 embryos were treated with each compound at a time. Representative images of live embryos are shown with gross morphology (right panels) and pituitary Pomc-GFP positive cells at higher magnification (left panels) at 40 hpf. […] (D) Relative expression of pituitary Pomc-eGFP fluorescence were analyzed using Velocity 5.2 (Improvision) (mean±SE of relative expression, n=7 randomly picked embryos from 100-150 embryos of each group). […] Results represent one of three similar experiments. Scale bar, 50 μm. *, p<0.02; **, p<0.000005.
Tg:Pomc-Pttg; POMC-eGFP double transgenic embryos were exposed to each compound added to the embryo culture medium.
Dexamethasone (Sigma) was dissolved in distilled water, R-roscovitin (Selleck Chemicals), flavopiridol (Selleck Chemicals), PD0332991 (Selleck Chemicals), olomoucine (Cayman Chemical Co.), and CAY10578 (Cayman Chemical Co.) were dissolved in 0.2% DMSO at a stock concentration of 1 mM, and diluted in fish medium immediately before adding to live embryos at the stages indicated.

[7] = test system: AtT20 corticotroph tumor xenografts; test: AtT20 corticotroph tumor xenograft in athymic nude mice, tumor growth and tumor protein expression; conditions: 150 mg/kg oral gavage twice daily
Procedure: as §3
Animal experiments were performed in accordance with Cedars-Sinai Institutional Animal Care and Use committee guidelines. Mouse corticotroph tumor AtT20 cells (−1×10^5) were inoculated s.c. into 6-wk-old female nu/nu mice. […] After 3 wk of treatment, mice were killed by CO2 inhalation, and tumors were dissected, weighted, and snapfrozen for further analysis.
Protein samples were prepared in RIPA buffer (Sigma), separated on NuPAGE Novex Bis-Tris Gels (Invitrogen), and transferred onto PVDF membrane (Millipore) before blotting with primary antibody [cyclin E, 1:500 (Abcam); PTTG, 1:1,000 (Abcam); β-actin, 1:5,000 (Sigma); and p21, 1:1,000, p27, 1:500, p57, 1:1,000, pRb821, 1:1,000 (Santa Cruz Biotechnology)] at 4° C. overnight. After washes with 0.5% Tween-20 in Tris-buffered saline solution, membranes were incubated with horseradish peroxidaselinked secondary antibody (GE Healthcare) and developed using ECL Western blotting detection reagents (GE Healthcare).

[8] = Insulin tolerance test in adult zebrafish; assay type: in vivo; conditions: 0.1 unit/100 mg
Procedure: Zebrafish glucocorticoid steroidogenic cells are arranged as epithelial cell layers (arrowheads) in association with the renal head posterior cardinal vein (PCV) 28. […] Glucose tolerance tests were performed in 72 Tg:pomc-pttg and WT fish. Zebrafish was given ad lib feeding of regular diet for one hour (grey column) after 16 hours of fasting. Blood glucose was measured at different time points after re-feeding. Glucose levels are presented as mean±SE (AUC, p<0.0001). (C) Insulin tolerance tests in Tg:pomc-pttg and WT fish. […] (D) Oil red O(ORO) staining of liver sections reveal hepatic lipid accumulation in Tg:Pomc-pttg transgenics. (E) Area distribution and intensity of hepatic ORO staining were scored (mean±SE, *, p<0.01). […] Top, Tg:Pomc-pttg zebrafish (Tg) with gross pericardial fluid accumulation (arrow) compared with wildtype (WT) at 24 months. […]
To determine the metabolic impact of hypercortisolism in Tg:Pomc-Pttg zebrafish, adult Tg:Pomc-Pttg and WT fish were subjected to 16 hour fasting followed by ad libitum feeding of regular diet for one hour. […] Because teleost fish are glucose intolerant due to blunted peripheral responses to insulin^29, and glucocorticoids induce insulin resistance in mammals, insulin sensitivity was assessed by testing blood glucose responses to intraperitoneally administered insulin. […]

[9] = 18-40 hpf, Tg:Pomc-Pttg, POMC-eGFP embryos

O=C1NCCc2[nH]c(-c3ccncc3)cc21 [CAY10572]
change in pituitary POMC-eGFP expression compared with controls ([1]; 50 μM, 18-40 hpf, Tg:Pomc-Pttg, POMC-eGFP embryos): no significant change

CC[C@H](CO)Nc1nc(NCc2ccccc2)c2ncn(C(C)C)c2n1 [R-roscovitine]
reduction in pituitary POMC-eGFP expression compared with controls [1, 9]: approximately 40% | reduction of POMC-eGFP expression compared with control ([1]; 50 μM, 18 to 48 hpf, Tg:Pomc-Pttg, POMC-eGFP embryos): greater than 50% | effect on Prl-RFP expression [2]: no effect | number of viable cells (Wst-1) ([3]; at 24 and 48 hours): decreased number of viable cells | cell number ([3]; by 24 hours): decreased cell number | ACTH concentration in culture medium (RIA) (AtT20 cells [4]): decreased | β-galactosidase expression (senescence) (AtT20 cells [5]): increased | reduction in plasma ACTH levels [6]: > 50% | reduction in serum corticosterone levels [6]: ~50% | embryonic growth / development of treated embryos (zebrafish embryos): no apparent growth defect | numbers of PCNA and ACTH co-expressing cells in tumors ([7]; 3 weeks): decreased | tumor volumes ([7]; 5 days per week, 3 weeks): decreased | weight reduction of dissected tumor xenografts ([7]; 5 days per week, three weeks): ~50% | weight of dissected tumor xenografts (mean±S.E.) ([7]; 5 days per week, three weeks, vehicle 40.0±4.7 mg, n=13-14): 21.0 ± 2.6 mg | ACTH protein expression in tumor specimens (Western-blot and immunohistochemistry) ([7]; three weeks): suppressed | PCNA protein expression in tumor specimens (Western-blot and immunohistochemistry) ([7]; three weeks): suppressed

CN1CC[C@@H](c2c(O)cc(O)c3c(=O)cc(-c4ccccc4Cl)oc23)[C@H](O)C1 [flavopiridol, 2-(2-chlorophenyl)-5,7-dihydroxy-8-((3S,4S)-3-hydroxy-1-methylpiperidin-4-yl)-4H-chromen-4-one]
embryonic growth / development of treated embryos (zebrafish embryos): early developmental defect; also recorded: retarded early embryonic development

Cn1cnc2c(NCc3ccccc3)nc(NCCO)nc21 [olomoucine]
reduction in pituitary POMC-eGFP expression compared with controls [1, 9]: approximately 20% | relative expression of pituitary POMC-eGFP fluorescence (mean±S.E.) ([1]; 50 μM, 18-40 hpf, n=7, control 1.0±0.08): 0.8±0.07 | embryonic growth / development of treated embryos (zebrafish embryos): no apparent growth defect

insulin: insulin injected intraperitoneally for insulin tolerance test
blood glucose response to intraperitoneal insulin ([8]; Tg:Pomc-Pttg fish, up to 90 minutes after injection): no significant change | blood glucose response to intraperitoneal insulin ([8]; WT fish, 30 minutes after injection): brisk hypoglycemic response
